Data taken from US5143903A, “Method of treatment with tripeptide pharmaceutical compositions as immunomodulators” (priority 1989, dated 1992).

Tests used:
[1] = system: Mononuclear cells of peripheral human blood (PBMC); assay: Test on the proliferation of mononuclear cells; assay type: cell-based; design: key: expressing with +, ++ and +++ the substances acting as stimulants (from the least to the most effective); expressing with +, ++ and +++ the substances acting as stimulants (from the least to the most effective); expressing with +, ++ and +++ the substances acting as stimulants (from the least to the most effective); with -, -- and --- the substances inhibiting normal cell growth; with -, -- and --- the substances inhibiting normal cell growth; with -, -- and --- the substances inhibiting normal cell growth; The inactive compounds were expressed with =; separating with / the effects of the higher doses from those of the lower doses; details: Table 2, tritium thymidine; for Effect on cell proliferation, ACTIVATOR USED Interl. 2: PBMC activated with Interleukin 2, 6 days
Procedure: Mononuclear cells of peripheral human blood (PBMC), provided by healthy volunteers, were purified according to techniques normally used in haematology laboratories, and were finally suspended, at a concentration of 1.000.000/ml in the bed RPMI 1640 (company Flow Laboratories), enriched with 10% of heat inactivated human serum, 2 mM of glutamine and 40 mcg/ml of Gentalyn (from Shering Co.).
The cells were cultivated (100.000/pit) in triplicate on plates of 96 flat-bottomed pits, for a varying number of days according to the activating substances used (6 days for Interleukin 2 and PPD, 3 days for PHA and ConA), in 200 microliters of the suspension bed, in an incubator at 37° C. with 5% CO2. During the last 17 hours of culture the cells were marked with 0,5 microCuries of tritium thymidine (TdR). At the end of the incubation period, the radioactivity present in the cells was gathered on fiberglass filters. Embedded TdR was measured in a beta-radiation counter.
The results are expressed as arithmetic averages of the counts.
On the cells cultivated in this manner the effect of the substances derived from snake poison was tested.
Using the same methods employed in the test described above, a series of compounds having a peptide structure according to the invention, along with other control compounds, were tested for their imunomodulant activity.

T lymphocites = assay: Comparison with Interferon gamma: proliferative response of T lymphocites after presentation of B lymphocites treated with PPD; assay type: cell-based; details: 1000 u/ml
Description: With the aim of more detailed study of the mechanism of action, the effect of the tripeptide PYR-LEU-TRP has been compared to that of Interferon gamma as regards the stimulation of the proliferative response of T lymphocites after presentation of the B lymphocites treated with PPD.

| Molecule | Effect on cell proliferation, ACTIVATOR USED Interl. 2 [1] | Effect on cell proliferation, ACTIVATOR USED PPD ([1]; PBMC activated with PPD, 6 days) | increase of the basal proliferative response (T lymphocites) |
| --- | --- | --- | --- |
| CC(C)C[C@H](NP(=O)(O)O[C@@H]1O[C@@H](C)[C@H](O)[C@@H](O)[C@H]1O)C(=O)N[C@@H](Cc1c[nH]c2ccccc12)C(=O)O [Phosphoramidon] | +++ | +++ | – |
| Z--PRO--LEU--TRP | +++ | – | – |
| gamma Interferon: Interferon gamma, compared with the tripeptide at 1000 u/ml | – | – | approximately two and a half times |
